The subject of data set [1] is UGT enzymes of human liver microsomes. Put plainly: Kinetic and Ki studies of inhibitors of 7-HFC glucuronidation in human liver microsomes. Type of data set: biochemical. To be noted: for Inhibition Type: highest inhibitor concentration only; for Ki: highest inhibitor concentration only (tannic acid 0, 25; octyl gallate and gallocatechin gallate 0, 200 μM), read-out: Ki (apparent), 7-HFC glucuronidation.

The subject of data set [2] is T1, UGT enzymes of human liver microsomes.
T1 construct: residual metabolism (percentage of control), labetalol LG1; other: labetalol 50 μM; residual metabolism (percentage of control), labetalol LG1; residual metabolism (percentage of control), labetalol LG2; inhi
Put plainly: Inhibition of labetalol glucuronidation (LG1, LG2) in human liver microsomes. The data set is classed as biochemical. Particulars: labetalol 50 μM. As for the experimental part:
Supernatants were analyzed by HPLC with fluorescence detection.
Compounds were eluted using a binary solvent gradient system where solvent A was 5:5:90 tetrahydrofuran-acetonitrile-(NH4)2HPO4 50 mM, while solvent B was 25:25:50 tetrahydrofuran-acetonitrile-(NH4)2HPO4 50 mM. Solvent flow rate was 0.75 ml/min and the column temperature was ambient. […] Labetalol and metabolites were measured by fluorescence detection using a Jasco model FP920 detector. Excitation and emission wavelengths were 370 nm 418 nm respectively. Retention times for salicylamide internal standard and labetalol were 6.6 min and 15.0 min respectively.

Data set [3] relates to UGT enzymes of human liver microsomes. Kind of data set: Inhibition of 2ME2 glucuronidation (MG1, MG2) in human liver microsomes. Particulars: liver 062101, 2ME2 50 μM. The data set is classed as biochemical. The source says: Compounds were eluted using a binary solvent gradient system where solvent A was dilute phosphoric acid (pH 3) and solvent B was 80:20 acetonitrile-methanol. […] Detection was at 280 nm.
(Liver microsomes are a subcellular fraction often used to study metabolism.)

A further data set addresses T2, UGT1A10 (Homo sapiens, UniProt Q9HAW8).
T2 sequence (Q9HAW8 26-530): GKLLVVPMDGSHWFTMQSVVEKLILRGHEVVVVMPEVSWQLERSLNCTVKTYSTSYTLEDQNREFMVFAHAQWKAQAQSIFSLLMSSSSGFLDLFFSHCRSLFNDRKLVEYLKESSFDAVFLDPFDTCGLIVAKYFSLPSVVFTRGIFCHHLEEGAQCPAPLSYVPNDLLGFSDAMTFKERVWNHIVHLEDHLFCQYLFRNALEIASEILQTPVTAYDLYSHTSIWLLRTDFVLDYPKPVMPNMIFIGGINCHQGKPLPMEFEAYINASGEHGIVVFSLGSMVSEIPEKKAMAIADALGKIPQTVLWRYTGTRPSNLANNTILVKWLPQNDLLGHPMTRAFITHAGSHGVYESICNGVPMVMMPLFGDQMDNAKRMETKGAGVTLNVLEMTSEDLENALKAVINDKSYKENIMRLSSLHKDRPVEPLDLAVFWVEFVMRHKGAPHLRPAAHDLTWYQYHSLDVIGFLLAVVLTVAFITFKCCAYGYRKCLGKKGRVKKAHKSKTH
Kind of data set: Inhibition of raloxifene glucuronidation by recombinant UGT1A10 Bacculosomes. Particulars: human, Bacculosomes with recombinant human UGT1A10, pH 7.5, probe raloxifene 50 μM; for activity at 15 min, 25 µM: inhibitor 25 μM; for activity at 15 min, 50 µM: inhibitor 50 μM.

Data set [4] deals with UGT enzymes of human liver microsomes. Put plainly: Inhibition of 7-HFC glucuronidation in human liver microsomes. The data set is classed as biochemical. Particulars: 7-HFC 50 μM, human liver microsomes 100 μg/ml, 15 min.
Where [5] appears, read: formation of glucuronide G1, % of control metabolism, raloxifene G1, UGT1A10.
Setting [6] is: formation of glucuronide G2, % of control metabolism, raloxifene G2, UGT1A10.

Values joined by “and” are separate entries in the source; they are usually repeats but may differ in a detail not shown here. Equal entries are not always repeated.

Protocol for UGT1A10: Compounds were eluted using a binary solvent gradient system. Solvent A was water brought to pH 8 with NH4OH. Solvent B was methanol. Solvent flow rate was 1 ml/min and the column temperature was maintained at 50° C. Detection was at 280 nm. […] The system was then returned to the initial conditions and equilibrated for 3 min.

In the case of `O=C(O[C@@H]1Cc2c(O)cc(O)cc2O[C@H]1c1cc(O)c(O)c(O)c1)c1cc(O)c(O)c(O)c1` [Gallocatechin gallate], in data set [1], the “Inhibition Type” value is on record as “Non-competitive” and the Ki is 40 ± 3 µM. Besides, in data set [1] (listed as gallocatechin gallate), the “Inhibition Type” value is listed as “strictly non-competitive”. In data set [2] (inhibitor 50 μM), the “residual metabolism (percentage of control), labetalol LG1” value is 60 (5) % and the “residual metabolism (percentage of control), labetalol LG2” value is listed as 55 (8) %. In data set [3] (inhibitor 10 μM), the “residual metabolism (% of control), 2ME2 MG1” value is listed as 56 (1) % and the “residual metabolism (% of control), 2ME2 MG2” value is recorded as 84 (1) %. On UGT1A10 (setting [5]), the activity at 15 min, 25 µM was found to be 64% and the activity at 15 min, 50 µM is 49%. For the same compound, at UGT1A10 (setting [6]), the activity at 15 min, 25 µM was 68% and the activity at 15 min, 50 µM came out at 48%.

Regarding `O=C(OC[C@H]1O[C@@H](OC(=O)c2cc(O)c(O)c(OC(=O)c3cc(O)c(O)c(O)c3)c2)[C@H](OC(=O)c2cc(O)c(O)c(OC(=O)c3cc(O)c(O)c(O)c3)c2)[C@@H](OC(=O)c2cc(O)c(O)c(OC(=O)c3cc(O)c(O)c(O)c3)c2)[C@@H]1OC(=O)c1cc(O)c(O)c(OC(=O)c2cc(O)c(O)c(O)c2)c1)c1cc(O)c(O)c(OC(=O)c2cc(O)c(O)c(O)c2)c1` [Tannic acid], the “% of control metabolism (SD, n = 3), 7-HFC glucuronidation” value is 72 (1) % in data set [4] (inhibitor 5 μM); 47 (2), % and 50 (1) % in data set [4] (inhibitor 10 μM). In addition, the “Inhibition Type” value in data set [1] is on record as “Non-competitive”. In addition, the Ki in data set [1] was 5.4 ± 0.4 µM. For the same compound, the “residual metabolism (percentage of control), labetalol LG1” value in data set [2] (inhibitor 50 μM) is 42 (1) %; in data set [2] (inhibitor 100 μM) it was 19 (1) % and 21 (1) %. For the same compound, the “residual metabolism (percentage of control), labetalol LG2” value in data set [2] (inhibitor 50 μM) is 37 (2) %; in data set [2] (inhibitor 100 μM), 9 (0) % and 13 (3) %. Also, the “residual metabolism (% of control), 2ME2 MG1” value in data set [3] (inhibitor 2 μM) is recorded as 62 (2) %; in data set [3] (inhibitor 5 μM), 39 (0) %; in data set [3] (inhibitor 10 μM) it was 24 (1) %. Moreover, the “residual metabolism (% of control), 2ME2 MG2” value in data set [3] (inhibitor 2 μM) was 105 (3) %; in data set [3] (inhibitor 5 μM), 91 (5) %; in data set [3] (inhibitor 10 μM) it was 69 (6) %. In addition, the activity at 15 min, 25 µM at UGT1A10 (setting [5]) worked out at 56%; at UGT1A10 (setting [6]), 53%. Besides, the activity at 15 min, 50 µM at UGT1A10 (setting [5]) amounted to 10%; on UGT1A10 (setting [6]) it was 8%.
